Paper PMC4226669, “Anti-cancer potency of tasquinimod is enhanced via albumin-binding facilitating increased uptake in the tumor microenvironment” (Oncotarget, 2014)

Tests used:
mouse albumin = molecular target: T1, mouse albumin (Mus musculus, UniProt P07724); assay: Equilibrium dialysis binding to mouse albumin; details: pH 7.4, equilibrium dialysis, read-out: equilibrium dissociation constant (Kd)
T1 construct: purchased Sigma
Experimental: (§1) To determine whether albumin is the tasquinimod binding protein in plasma, albumin was removed from human plasma using an albumin depletion kit (Thermo Scientific cat # 85160). The albumin depleted plasma was then tested for its protein binding as described above. The dissociation constant (kd) for tasquinimod binding was determined based upon equilibrium dialysis of a mixture of 4mg/ml of the species (i.e., human, bovine, and mouse) specific albumin obtained from Sigma with 2μM of ^14C-labeled tasquinimod in PBS pH 7.4 buffer using a 96-well equilibrium dialyzer™ (Harvard Apparatus, Holliston,MA).

bovine albumin = molecular target: T2, bovine albumin (Bos taurus, UniProt P02769); assay: Equilibrium dialysis binding to bovine albumin; details: pH 7.4, equilibrium dialysis, read-out: equilibrium dissociation constant (Kd)
T2 construct: purchased Sigma
Experimental: as §1

[1] = tested on: metastatic, castrate resistant prostate cancer; design: method as in PMID 21931019, PMID 24255071; details: vs placebo; cited from earlier work
[2] = tested on: CWR-22Rv1 prostate cancers; assay: Vascular volume, albumin-Evans Blue accumulation (EPR effect) and growth in CWR-22Rv1 bearing mice treated with tasquinimod; type: in vivo, mouse
Experimental: To evaluate the potential importance of an EPR effect for enhancing tumor specific tasquinimod uptake and thus anti-cancer potency, albumin retention in plasma and normal tissue vs. prostate cancer was determined. To do this, nude mice bearing CWR-22Rv1 prostate cancers were injected intravenously (IV) with Evans Blue (EB) at a dose (10mg/kg) so that all of the dye is initially bound to albumin within the blood. Twenty-four hours later, the amount of albumin-EB complex retained in plasma vs. accumulated in liver, kidney, or CWR-22Rv1 prostate cancers determined. The results are expressed as concentration of extractable albumin-EB in plasma vs. the specified tissue. These studies document that prostate cancers accumulate a concentration of albumin-EB that is equal to that in the plasma by 24 hours, Figure 3C. When normalized to vascular volume, the albumin-EB accumulation by prostate cancers is more than two fold greater (p<0.05) compared to liver and more than 8 fold greater (p<0.05) compared to kidney, Figure 3C. […] Such continuous treatment with tasquinimod decreased the vascular volume within the cancers by nearly half (p<0.05), Figure 3C. […]
Tissue vascular volumes for liver, kidney, and CWR-22Rv1 cancers were determined previously via intravenous infusion of^51 Chromium (Perkin Elmer, Shelton, CT) labeled red blood cells and the result expressed as percent vascular volume as described previously.
EPR effect was determined using Evans Blue as described previously with the modification that 24 hours after the albumin in the blood of tumor bearing nude mice was labeled via IV injection of Evans Blue (EB) at a dose of 10mg/kg, the animals were anesthetized, blood collected, and then animals were perfused with saline to remove blood from the host tissues before harvesting liver, kidney, and prostate cancer xenograft tissue. The results are expressed as the concentration of EB-labeled albumin retained in the blood or specified tissue.

[3] = Protein binding fraction (PBF) in human plasma; type: in vitro ADME; details: 1-50 μM radiolabeled tasquinimod
Experimental: An explanation for this highly restricted cellular uptake in the blood is provided by the fact that protein binding fraction (PBF) for tasquinimod in nude mouse plasma is 98 ± 1%. This is not a nude mouse specific effect since incubation of 1-50 μM radiolabeled tasquinimod with human plasma or bovine fetal serum (FBS) results in a PBF of ~ 98%.
Mice were orally gavaged with ^14C-labeled tasquinimod at a dose of 5mg/kg and 1 hour later blood collected and plasma isolated and the PBF determined as described previously using Centrifree® YM-30 centrifuge filter unit with a molecular weight cutoff of 30K (i.e., Millipore, Billerica,MO).

[4] = tested on: CWR-22Rv1 human prostate cancer xenografts; assay: Dose-response growth inhibition of established CWR-22Rv1 xenografts (subcutaneous daily injection); type: in vivo, mouse; details: 20 days
Experimental: To confirm these in vitro results, mice were inoculated subcutaneously (SQ) with CWR-22Rv1 cells and remained untreated until the tumors grew to ~ 200 mm3 (i.e., ~ 200 mgs) and then they were randomly assigned to groups (n=10) which were injected SQ daily with 100 μl of propylene glycol vehicle only vs. vehicle delivering 0.1 or 1 mg/kg/day of either tasquinimod or its carboxamide-N-demethylated metabolite. Propylene glycol was used as vehicle due to the low water solubility of the carboxamide-N-demethylated metabolite. After 20 days of continuous treatment, the experiment was terminated and the total weight of each cancer determined and the results expressed both as average tumor weight in grams and as the ratio of the weight of the cancers in the treated vs. vehicle control animals (i.e., T/C ratio), Figure 5A.
(§2) The source, history, and characteristics of the human prostate cancer cell lines (i.e., LNCaP, LAPC4, and CWR-22Rv1 and the human umbilical vascular endothelial cells (HUVEC) used, as well as cell culture conditions for their in vitro maintenance and the in vivo protocol for their xenografting into immune-deficient nude male mice are as described previously. The source, history, and characteristics of the TRAMP-C2 mouse prostate cancer line, as well as cell culture conditions for their in vitro maintenance and the in vivo protocol for their growth in intact adult male syngeneic C57Bl/6J are as described previously. All lines were mycoplasma negative using the MycoSensor PCR Assay kit (Agilent Technologies) and genetically authenticated within the last 6 months using short tandem repeat profiling conducted by the Johns Hopkins Genetic Resource Core Facility. The source, history, and characteristics of the CWR-RH human prostate cancer xenograft are as described previously. In vitro growth curves were determined as described. Animal studies were conducted according to animal protocol MO09M434 approved by Johns Hopkins Animal Care and Use Committee. Daily drug dosing via oral gavage, the drinking water, or subcutaneous injection, as well as tumor volume measurements and determination of the blood vessel density within cancers, were as described previously. These experiments were repeated at 3 independent times for each xenograft.

[5] = cited from earlier work
[6] = tested on: TRAMP-C2 mouse prostate cancer; assay: TRAMP-C2 cancer growth and blood vessel density in syngeneic mice; type: in vivo; details: 5 mg/kg/day via the drinking water
Description: Tasquinimod's oral potency is not restricted to human prostate cancer xenografts growing in immune-suppressed mice.
as §2, with “Daily drug dosing via oral gavage, the drinking water, or subcutaneous injection, as well as tumor volume measurements and determination of the blood vessel density within cancers, were as described previously. These experiments were repeated at 3 independent times for each xenograft.” left out

T1 sequence (P07724 25-608): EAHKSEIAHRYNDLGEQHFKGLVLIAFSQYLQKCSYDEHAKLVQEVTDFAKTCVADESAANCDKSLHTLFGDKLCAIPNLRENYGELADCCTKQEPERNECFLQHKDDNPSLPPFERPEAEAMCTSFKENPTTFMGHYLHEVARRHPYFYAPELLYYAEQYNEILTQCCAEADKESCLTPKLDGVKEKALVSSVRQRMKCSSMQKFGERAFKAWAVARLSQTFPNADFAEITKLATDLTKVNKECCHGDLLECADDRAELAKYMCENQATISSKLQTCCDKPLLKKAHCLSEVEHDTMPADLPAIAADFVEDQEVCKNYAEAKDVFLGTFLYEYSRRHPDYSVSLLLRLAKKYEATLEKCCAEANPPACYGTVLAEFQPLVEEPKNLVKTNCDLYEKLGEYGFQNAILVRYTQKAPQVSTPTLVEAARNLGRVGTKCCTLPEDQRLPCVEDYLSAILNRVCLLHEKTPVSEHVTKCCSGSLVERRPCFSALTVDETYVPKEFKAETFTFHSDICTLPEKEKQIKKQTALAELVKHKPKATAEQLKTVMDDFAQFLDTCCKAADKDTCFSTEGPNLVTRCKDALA
T2 sequence (P02769 25-607): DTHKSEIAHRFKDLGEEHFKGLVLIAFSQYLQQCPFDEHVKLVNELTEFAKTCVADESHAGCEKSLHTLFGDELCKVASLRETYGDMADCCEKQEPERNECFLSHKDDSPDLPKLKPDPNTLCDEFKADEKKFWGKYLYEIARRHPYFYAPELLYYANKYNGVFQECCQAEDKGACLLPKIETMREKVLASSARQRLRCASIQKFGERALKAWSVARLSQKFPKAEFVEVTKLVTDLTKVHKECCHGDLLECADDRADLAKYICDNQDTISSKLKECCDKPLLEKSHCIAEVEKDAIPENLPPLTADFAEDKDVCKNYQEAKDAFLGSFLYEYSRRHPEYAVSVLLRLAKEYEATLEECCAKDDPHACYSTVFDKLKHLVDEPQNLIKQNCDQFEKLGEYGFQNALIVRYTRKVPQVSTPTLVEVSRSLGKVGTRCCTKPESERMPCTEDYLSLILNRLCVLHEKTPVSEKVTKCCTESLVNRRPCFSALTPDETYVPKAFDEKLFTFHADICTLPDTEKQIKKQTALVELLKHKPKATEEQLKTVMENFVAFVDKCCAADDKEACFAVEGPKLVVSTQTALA

- Kd (mouse albumin): 16 ± 3 µM
- Kd (bovine albumin): 31 ± 6 µM
- fraction unbound [3]: ~0.02
Structure (SMILES): COc1cccc2c1c(O)c(C(=O)N(C)c1ccc(C(F)(F)F)cc1)c(=O)n2C [Tasquinimod]
- median progression-free survival [1]: doubles
- Percent Vascular Volume (Prostate Cancer) ([2]; 10mg/kg/day for 30 days): 1.4±0.4
- decrease of vascular volume within the cancers ([2]; 10 mg/kg/day for a month): nearly half
- inhibition in cancer growth ([2]; CWR-22Rv1, 10 mg/kg/day for a month): greater than 80%
- Avg Tumor Weight ([4]; 0.1 mg/kg/day SQ): 0.855 ± 0.203 g
- T/C Ratio ([4]; 0.1 mg/kg/day SQ): 0.491
- Avg Tumor Weight ([4]; 1 mg/kg/day SQ): 0.668 ± 0.166 g
- T/C Ratio ([4]; 1 mg/kg/day SQ): 0.383
- potency on an equal dose basis vs carboxamide-N-demethylated metabolite ([4]; 0.1 or 1 mg/kg/day SQ): equipotent
- blood (plasma) level maintained ([5]; chronic daily oral dosing, 1 mg (0.5-1 mg/day), clinical trials): ~ 0.5 μM
- plasma half-life ([5]; clinical trials): 40 ± 16 h
- plasma levels at which systemic anti-cancer potency occurs ([5]; clinical trials): 0.5 to 1 µM
- bioavailability and oral absorption ([5]; daily dose as liquid or gelatin capsule): excellent
- inhibition of TRAMP-C2 mouse prostate cancer growth ([6]; immune-competent syngeneic mice): > 80%
- inhibition of blood vessel density within the TRAMP-C2 cancers ([6]; treated vs. control): 75 ± 9%
